What all share (assay type): functional
The species named for assay [1] is Oryctolagus cuniculus. As to the kind of experiment: Inhibitory activity against PAF (4e-10 M) induced aggregation of rabbit platelet at 1.5E-6 M concentration.
For assay [2], the species on record is Oryctolagus cuniculus. As to the kind of experiment: Inhibitory activity against PAF (4e-10 M) induced aggregation of rabbit platelet at 1.5E-5 M concentration.
Assay [3] is filed under the species Oryctolagus cuniculus. Kind of assay: Inhibitory activity against PAF (4e-10 M) induced aggregation of rabbit platelet at 3E-5 M concentration.
Assay [4] is filed under the species Oryctolagus cuniculus. As to the kind of experiment: Inhibitory concentration against PAF (8E-10M) induced aggregation of rabbit platelet at 2.1E-4 M concentration.
The species named for assay [5] is Oryctolagus cuniculus. As to the kind of experiment: Inhibitory activity against PAF (8E-10M) induced aggregation of rabbit platelet at 2.1E-4 M concentration.
The species entered for assay [6] is Oryctolagus cuniculus. Kind of assay: Inhibitory activity against PAF (4e-10 M) induced aggregation of rabbit platelet at 2.1E-4 M concentration.
Assay [7] is filed under the species Oryctolagus cuniculus. As to the kind of experiment: Inhibitory activity against PAF (4e-10 M) induced aggregation of rabbit platelet at 7.5E-5 M concentration.

Take `CCCCC/C=C\C/C=C\C/C=C\C/C=C\CCCC(=O)O` [ARACHIDONIC ACID]: the Inhibition in the assay filed under Oryctolagus cuniculus [1] turned out to be 0%; in the assay listed under Oryctolagus cuniculus [2], 6%; in the assay filed under Oryctolagus cuniculus [3] it was 24%; in the assay filed under Oryctolagus cuniculus [5], 100%; in the assay filed under Oryctolagus cuniculus [6], 100%; in the assay filed under Oryctolagus cuniculus [7], 61%. Besides, in the assay filed under Oryctolagus cuniculus [4], the IC50 is about 60 µM.

The record behind these values is ChEMBL document CHEMBL1139563, “Synthesis of all-trans arachidonic acid and its effect on rabbit platelet aggregation” (Bioorg Med Chem Lett, 2005).
